According to paper PMC9355956 (Communications Biology, 2022):
Where “and” joins values, the source holds several entries; their conditions need not be identical. Identical values can stand only once. Entries after “also recorded” stand apart in the source; their conditions may differ. Counter-ions that a name gives are not always drawn. Like-named read-outs stand apart in the source and are kept apart here. Values belong to the molecule of their own block, whether it stands above or below them.

Columns and labels:
hSMOX in A549 cells = molecular target: T1, hSMOX in A549 cells (Homo sapiens, UniProt Q9NWM0); assay: CETSA in A549 cells with hSMOX AlphaLISA detection; format: cell-based; settings: A549 intact cells, 54 °C, vs vehicle
T1 construct: human lung carcinoma cells (A549) which endogenously produce high levels of hSMOX; endogenous in cells; host or cells: A549 human lung carcinoma cells
Excerpt: To determine whether JNJ-1289 would be able to target hSMOX in a cellular environment, we developed a Cellular Thermal Shift Assay (CETSA®)[52] using human lung carcinoma cells (A549) which endogenously produce high levels of hSMOX[53]. CETSA evaluates the binding of low molecular weight compounds to target proteins directly in intact cells by taking advantage of the increased resistance to thermal denaturation that ligand binding can confer on proteins. Detection of the relative amounts of remaining soluble protein using AlphaLISA after incubation of A549 cells at the optimal melting temperature of hSMOX for CETSA (54 °C) was performed in the presence or absence of hSMOX ligands.
A549 (adenocarcinoma human alveolar basal epithelial cells) express relatively high levels of hSMOX. Their use has been widely reported in the literature for the investigation of the polyamine catabolic pathway. In our case, using hSMOX high-expressing cells with CETSA and AlphaLISA systems provided the optimal platform for screening promising small molecules for hSMOX inhibition.
T175 culture flasks with 80–90% confluent cells were used for harvesting after washing two times with PBS followed by the addition of 2 mL TrypLE^TMselect (Gibco) per flask and incubation for 5 min at 37 °C. After dissociation, cells were resuspended in 1 mL culture medium (DMEM (Gibco) with 10% fetal calf serum) and 7 mL PBS. Cells from multiple flasks were pooled, spun down for 5 min at 300 × g, and resuspended to 20 million cells/mL in PBS.
Compounds were dissolved in DMSO to 1 mM stocks. Compound stocks and DMSO controls were added to vials containing 1 mL cell suspension to an end concentration of 10 µM compound and 1% DMSO. Vials were incubated at 37 °C for 1 h while shaking at 125 rpm. Subsequently, vials were cooled on ice and cells were distributed to PCR vials at 20 µL per vial. Transient heating of the cells was performed using a PCR Thermocycler. Vials were heated up to 54 °C for 1 min and then immediately cooled on ice. For temperature range experiments the heating step was repeated increasing the temperature with each next vial with 1 °C. After the cooling step cells were lysed by adding 80 µL 1x AlphaLISA-buffer (Perkin Elmer).
The hSMOX specific AlphaLISA was developed using internally monoclonal rabbit antibody mAb#2 and F(ab’)2 fragment Fab#33 against hSMOX containing a C-terminal His-tag. Both mAb#2 and Fab#33 are specific for hSMOX and selected for their ability to detect hSMOX without interfering with its catalytic activity. Care was taken to confirm that both mAb#2 and Fab#33 bind to distinct (conformational) epitopes. […] After 1 h Alpha signal was read using an Alpha compatible reader. […]

hSMOX [1] = molecular target: T2, hSMOX (Homo sapiens, UniProt Q9NWM0); assay: nanoDSF thermal denaturation of purified SMOX; format: binding; settings: 10 μM SMOX, 100 μM compound
T2 construct: 6xHis (N); TEV cleavage site (N); made in house; host or cells: E. coli BL21(D3), plasmid PET28b(+)
Protocol: All nanoDSF experiments were performed on a nanoTEMPER Prometheus NT.48 instrument. 10 μM purified SMOX was incubated with 100 μM compound of interest for 10 min and loaded onto the instrument. Thermal denaturation (25–90 °C) was conducted at 1.0 °C/min and 45% intensity. Tm was calculated using PR.ThermControl software as the inflection point of the first derivative of Trp fluorescence during the temperature gradient measured at 350/330 nm. All experiments were performed in triplicate.

hPAOX = hPAOX (Homo sapiens, UniProt Q6QHF9); assay: hPAOX HyPerBlu enzyme activity assay (N-AcSpm substrate)
Protocol: The activity of hSMOX, hPAOX, and LSD1 enzymes was measured using the HyPerBlu chemiluminescent reagent for the direct detection of the hydrogen peroxide product. […] Hydrogen peroxide product formation was monitored 30 min after the addition of HyPerBlu on a PHERAstar microplate reader (BMG LABTECH, Cary, NC). All compounds were spotted into the assay plates using Echo acoustic dispensing technology (BeckmanCoulter, Indianapolis, IN). Unless otherwise stated, all reactions were carried out in 384-well assay format.
2 µL/well of 2x substrate was dispensed into the assay plate followed by 2 µL/well of 2x enzyme to initiate the reactions. […] The data were fit to the 4-parameter IC50 equation in GraphPad Prism.
50 nL/well of the twofold inhibitor titrations in 100% DMSO were dispensed into the assay plate followed by the addition of 2.5 µL of 2x hSMOX or 2x hPAOX. A 2 h or 4 h E·I preincubation was carried out at a final concentration of 2 nM or 3 nM hSMOX or 60 pM hPAOX. […] For the 0 h preincubation control, the addition of the substrate solution was made prior to the enzyme solution. […] The data were fit to the 4-parameter IC50 equation in GraphPad Prism.
Briefly, 2.5 µL/well of the twofold substrate solutions prepared in buffer was added to the assay wells followed by 2.5 µL/well of the 2x enzyme to initiate the reactions.
The initial velocity data were fit to the Michaelis-Menten equation in GraphPad Prism. Y=Vmax*X/(Km+X) where Vmax is the maximal velocity, X is the substrate concentration and Km is the Michaelis-Menten constant. The kcat value was determined by dividing Vmax value by the enzyme concentration.

hSMOX [2] = molecular target: T2, hSMOX; assay: hSMOX HyPerBlu chemiluminescent enzyme activity assay (H2O2 detection, Spm substrate); format: biochemical; settings: for time-dependent inhibition of hSMOX: ± 2 h preincubation with enzyme
Excerpt: Based on this assay, we carried out a high-throughput screening campaign searching for inhibitors of hSMOX against a diverse compound collection.

murine SMOX enzyme = settings: value reported for the murine SMOX enzyme; cited from earlier work
LSD1 = LSD1 (Homo sapiens, UniProt O60341); assay: LSD1 HyPerBlu enzyme activity assay (H3K4me2 peptide substrate)
hSMOX [3] = molecular target: T2, hSMOX; assay: Thermal shift assay (ThermoFluor, ANS dye) of purified hSMOX; format: binding; settings: compared to DMSO control
Protocol: The fluorescent dye ANS (Molecular Probes) was used to monitor the thermal denaturation of hSMOX. Assay buffer consisting of 10 mM HEPES pH 7.5, 150 mM NaCl, 0.005% P20 was used for all dilutions. The assay was performed in 384-well Hard Shell thin-wall PCR plates (Bio-Rad). 120 nL of ligand was dispensed into the 384-well plate using acoustic dispensing technology followed by the addition of 4 µL of 0.2 mg/ml of hSMOX with 60 µM ANS dye. Replicates of 4% DMSO protein control were set up in each plate. Wells were covered with 1 µL silicone oil. Plates were centrifuged at 1000 rpm for 2 min. The Tm’s were measured using a ThermoFluor instrument. The plates were heated from 30 to 80 °C at a rate of 1 °C per minute. The ΔTm is calculated as the difference between the Tm of each well and that of the average 4% DMSO protein control.

hSMOX [4] = molecular target: T2, hSMOX; assay: Progress curve analysis of hSMOX inhibition (on rate, mode of inhibition); format: biochemical
Protocol: Reactions were initiated with 3 µL/well of 2x hSMOX and quenched at several time points up to 1 h with 3 µL/well of 25 µM final chlorhexidine. […] Thereafter, 9 µL/well of HyPerBlu reagent was added.
Time point data up to 1 h of reaction time was captured by dispensing 3 µL/well of 25 µM final chlorhexidine to quench the reactions followed by the addition of 9 µL/well HyPerBlu reagent.
Supplementary Fig. 11. Kinetics of JNJ-1289. a, Reaction progress curve analysis of 2 nM […]
Progress curves were monitored for 1h and fit to Eqn S1 at each JNJ-1289 concentration to determine the observed rate constant, kobs.
[P] = Y0 + υ t + υi−υs (1 − e−kobst) (S1) […]
where υi and υs are the initial and steady state velocities, respectively, t is time and kobs represents the observed rate constant. b, Replot of kobs vs. [JNJ-1289] was hyperbolic, which indicated a two-step binding mechanism […]
where I is the inhibitor concentration, k5 and k6 are the estimated forward and reverse rate constants, respectively, and Kiapp is the apparent value of the initial E·I complex. […]
concentrations (7.8 – 1000 µM). Progress curves were monitored for 1h and fit to Eqn S3 at […]
(1 picture or pasted object on this page, not shown here)

[5] = 2.5 nM hSMOX, 30 µM Spm, 1 h reaction, HTS assay conditions, read-out: IC50 hSMOX

hPAOX, sequence (Q6QHF9 whole entry): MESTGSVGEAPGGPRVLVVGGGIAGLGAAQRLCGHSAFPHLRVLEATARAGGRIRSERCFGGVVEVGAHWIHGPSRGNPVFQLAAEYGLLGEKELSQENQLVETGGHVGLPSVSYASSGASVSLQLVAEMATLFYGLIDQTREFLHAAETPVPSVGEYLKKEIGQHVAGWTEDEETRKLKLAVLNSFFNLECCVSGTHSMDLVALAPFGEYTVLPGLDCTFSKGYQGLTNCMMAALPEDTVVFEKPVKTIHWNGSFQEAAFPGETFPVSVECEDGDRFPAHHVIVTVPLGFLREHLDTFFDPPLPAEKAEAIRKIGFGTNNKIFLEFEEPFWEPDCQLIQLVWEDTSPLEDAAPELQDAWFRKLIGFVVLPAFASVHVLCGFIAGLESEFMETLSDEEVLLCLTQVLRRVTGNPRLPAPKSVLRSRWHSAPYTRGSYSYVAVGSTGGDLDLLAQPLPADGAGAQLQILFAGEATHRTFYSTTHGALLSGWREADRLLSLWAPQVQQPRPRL
T1 sequence (Q9NWM0 whole entry): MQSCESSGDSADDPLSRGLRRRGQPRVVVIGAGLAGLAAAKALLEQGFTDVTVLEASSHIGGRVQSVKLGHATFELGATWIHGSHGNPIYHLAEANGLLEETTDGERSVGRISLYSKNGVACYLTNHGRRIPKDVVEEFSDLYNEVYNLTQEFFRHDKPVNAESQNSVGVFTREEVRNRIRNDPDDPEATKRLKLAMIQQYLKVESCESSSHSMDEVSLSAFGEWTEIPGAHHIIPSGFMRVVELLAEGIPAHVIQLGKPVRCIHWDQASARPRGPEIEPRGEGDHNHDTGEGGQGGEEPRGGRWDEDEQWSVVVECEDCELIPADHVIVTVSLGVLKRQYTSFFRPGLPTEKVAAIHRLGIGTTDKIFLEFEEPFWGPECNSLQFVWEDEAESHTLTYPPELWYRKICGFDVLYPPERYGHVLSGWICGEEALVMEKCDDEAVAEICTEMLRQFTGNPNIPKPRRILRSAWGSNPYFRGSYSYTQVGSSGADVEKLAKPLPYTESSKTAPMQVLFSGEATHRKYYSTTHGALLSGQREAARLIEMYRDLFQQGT
T2 sequence (Q9NWM0 whole entry): as above

cellular hSMOX engagement (AlphaLISA signal after heating) (hSMOX in A549 cells): robust cellular hSMOX engagement
SMILES: C=C=CCNCCCCNCC=C=C [MDL72527, reference compound]
thermal stability of hSMOX (nanoDSF) (hSMOX [1]): increase the thermal stability of the protein

cellular hSMOX engagement (AlphaLISA signal after heating) (hSMOX in A549 cells): absence of cellular hSMOX engagement
SMILES: CCNCCCNCCCNCCCNCC [Benspm]

Km (hPAOX; read-out: Km for hPAOX, substrate, 0.076 nM hPAOX): 20.1 ± 0.63 µM
kcat hPAOX (hPAOX; substrate, 0.076 nM hPAOX): 57 s⁻¹
SMILES: CC(=O)NCCCNCCCCNCCCN [N-AcSpm, N^1-acetylspermine trihydrochloride]

SMILES: [H]/N=C(\N/C(=N/[H])NCCCCCCNC(=N)NC(=N)Nc1ccc(Cl)cc1)Nc1ccc(Cl)cc1 [chlorhexidine, reference compound]
inhibition of hSMOX (in words) (hSMOX [2]): robust inhibition
IC50 (hSMOX [2]; [5]): 1900 nM
inhibition of hSMOX (in words) (hSMOX [2]; listed as Chlorhexidine): inhibited
time-dependent inhibition of hSMOX (hSMOX [2]): not observed
time-dependent inhibition of hSMOX (hSMOX [2]; listed as Chlorhexidine): did not display time-dependent inhibition
cellular hSMOX engagement (AlphaLISA signal after heating) (hSMOX in A549 cells): absence of cellular hSMOX engagement
Ki (murine SMOX enzyme): 3800 ± 200 nM

IC50 (hSMOX [2]; [5]): 50 nM
IC50 (hSMOX [2]; 2 h preincubation, 30 µM Spm, read-out: IC50 hSMOX, 2 h (120 min) enzyme-inhibitor preincubation): 5.5 nM and 8 nM
IC50 (hSMOX [2]; IC50 hSMOX, 4 h (240 min) enzyme-inhibitor preincubation, 4 h preincubation, 30 µM Spm): 3.2 nM
IC50 (hSMOX [2]; no preincubation, 30 µM Spm, read-out: IC50 hSMOX, 0 h enzyme-inhibitor preincubation): 143 nM and 127 nM
IC50 (LSD1): > 2000 nM
ΔTm of hSMOX (thermal shift) (hSMOX [3]): 11.3 °C
mode of inhibition with respect to Spm (hSMOX [4]; 312 nM inhibitor, varying Spm, 2 nM hSMOX): competitive hSMOX inhibitor
t1/2 dissociation (hSMOX [4]; from 0.693/koff): 7.7 h
Ki (hSMOX [4]; read-out: apparent Ki (Ki app) of the initial E·I complex): 1400 nM
kon (hSMOX [4]; read-out: apparent second-order on-rate constant (kon)): 2500 M⁻¹ s⁻¹
koff (hSMOX [4]; read-out: calculated first-order dissociation rate constant (koff)): 2.5e-05 s⁻¹
IC50 (hPAOX): > 2000 nM
time-dependent inhibition of hPAOX (hPAOX; ± 2 h preincubation with enzyme): do not observe time-dependent inhibition
SMILES: Oc1ccc(Nc2nc(-c3cnc4ccccn34)cs2)cc1 [JNJ-1289, 4-((4-imidazo[1,2,α]pyridine-3-ylthiazol-2-yl)amino)phenol]
IC50 hSMOX, 4 h (240 min) enzyme-inhibitor preincubation (hSMOX [2]; 4 h preincubation, 30 µM Spm): within twofold of the results observed using a 120 min pre-incubation
time-dependent inhibition of hSMOX (hSMOX [2]): selective and time-dependent inhibition; also recorded: time-dependent hSMOX inhibitor
cellular hSMOX engagement (AlphaLISA signal after heating) (hSMOX in A549 cells): absence of cellular hSMOX engagement; also recorded: apparent lack of target engagement
thermal stability of hSMOX (nanoDSF) (hSMOX [1]): increase the thermal stability of the protein

kcat hSMOX (hSMOX [2]; substrate, 2.5 nM hSMOX): 4 s⁻¹
SMILES: NCCCNCCCCNCCCN [Spm, spermine]
